In ChEMBL document CHEMBL1201862, “PubChem BioAssay data set” (2004):
Activity calls are given as the source filed them. Rule as the data show it: actives have a measured IC50 and inactives only a lower limit.

Target: Envelope glycoprotein gp160 (Human immunodeficiency virus 1, UniProt Q6QLK5)
Assay: inhibitors of HIV fusion peptide binding, primary screen, biochemical, uHTS, fluorescence dequenching (AID 1986)

Chain of Envelope glycoprotein gp160 (Q6QLK5 whole entry, the tested form may be a part): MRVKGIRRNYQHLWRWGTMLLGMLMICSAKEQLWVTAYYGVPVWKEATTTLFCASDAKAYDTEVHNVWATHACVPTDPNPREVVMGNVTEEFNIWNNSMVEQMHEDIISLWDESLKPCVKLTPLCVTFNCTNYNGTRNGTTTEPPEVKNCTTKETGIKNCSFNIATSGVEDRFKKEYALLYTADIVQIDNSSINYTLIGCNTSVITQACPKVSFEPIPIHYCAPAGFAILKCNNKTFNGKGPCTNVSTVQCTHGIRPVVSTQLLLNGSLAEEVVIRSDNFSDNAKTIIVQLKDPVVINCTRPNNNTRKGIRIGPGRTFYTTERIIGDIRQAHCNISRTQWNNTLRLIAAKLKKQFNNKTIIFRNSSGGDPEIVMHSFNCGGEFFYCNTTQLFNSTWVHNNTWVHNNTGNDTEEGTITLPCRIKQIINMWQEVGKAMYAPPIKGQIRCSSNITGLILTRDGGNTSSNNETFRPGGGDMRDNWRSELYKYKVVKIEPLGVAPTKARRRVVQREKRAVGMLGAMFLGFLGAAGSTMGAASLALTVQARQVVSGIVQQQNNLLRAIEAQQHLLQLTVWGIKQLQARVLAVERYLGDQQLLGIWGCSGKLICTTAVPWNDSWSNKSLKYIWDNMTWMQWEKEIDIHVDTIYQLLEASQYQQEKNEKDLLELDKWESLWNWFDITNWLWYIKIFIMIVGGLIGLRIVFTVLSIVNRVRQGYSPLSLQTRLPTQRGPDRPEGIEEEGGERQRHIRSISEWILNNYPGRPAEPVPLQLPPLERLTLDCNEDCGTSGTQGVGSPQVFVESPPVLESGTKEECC

COc1cc(/C=C2/C(=N)N3C(=NC2=O)SN=C3S(C)(=O)=O)ccc1OS(=O)(=O)c1ccccc1
IC50: 19.8 µM (active)
